Data as given in paper PMC12566046, “Arylpiperazinyl-Benzocycloheptapyrrole-Carboxamides Endowed with Dual Anticancer and Antiviral Activities” (Molecules, 2025).

Legend:
[1] = test system: cell line (breast cancer); experiment: NCI-60 single-dose assay; format: cell-based; settings: Homo sapiens, HS%/(T cell line), 10^−5 M, read-out: growth inhibition (GI%)
Method in brief: (§1)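 Single-dose cytotoxicity test run in the NCI-60 panel of human cancer cell lines. Threshold inhibition criteria across a minimum number of lines decided progression to five-dose testing.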

MDCK cells = settings: dog
in vitro = settings: human
Description: The toxicity of the compounds at the same concentration was tested on the same cells in parallel.
Cytotoxic effects were evaluated on uninfected cells using the WST-8 assay (Orangu, Cell Guidance Systems, Cambridge, UK) and the crystal violet assay [23]. […] Huh-7, MDCK, and Vero TMPRSS cells were seeded at 1 × 10^4, 1.5 × 10^4, and 1.2 × 10^4 cells/well, respectively, and incubated for 48 h (Huh-7 and MDCK) or 24 h (VERO TMPRSS), following conditions matching those of the corresponding antiviral assays in terms of timing and culture medium. At the end of incubation, the medium was replaced with a 10% WST-8 solution in DMEM and incubated for 1 h at 37 °C. Optical density (OD) was then measured at 450 nm using a Varioskan LUX plate reader (ThermoFisher Scientific, Milano, Italy). Subsequently, cells were fixed with 4% buffered formalin solution (Merck®, Darmstadt, Germany), stained with 1% crystal violet (Merck®, Darmstadt, Germany), and the dye was solubilized in 30% acetic acid for 30 min under shaking. OD was then measured at 595 nm as an additional readout of cell viability. The percentage of viability at each concentration was calculated using the formula:% viability = 100 × (ODcompound/ODuntreated control) where ODcompound and ODuntreated are the OD of the cells treated with compound or DMSO, respectively.
The CC50 value was determined by nonlinear regression analysis on GraphPad Prism 7 (San Diego, CA, USA).

SF-295 (CNS cancer) = experiment: NCI-60 five-dose assay; format: cell-based; settings: Homo sapiens, five-dose screen
[2] = test system: NCI-H460 (non-small cell lung cancer); experiment: NCI-60 five-dose assay; format: cell-based; settings: Homo sapiens, five-dose screen
[3] = test system: OVCAR-4 (ovarian cancer cell line); experiment: NCI-60 single-dose assay; format: cell-based, human
Method in brief: as §1

[4] = test system: PC-3 (prostate cancer cell line); experiment: NCI-60 single-dose assay; format: cell-based, human
Method in brief: as §1

Vero TMPRSS cells = settings: read-out: SARS‐CoV‐2/Vero TMPRSS CC50; preliminary screening (50, 5, 0.5 μM), Vero TMPRSS
MCF-7 (breast cancer) = experiment: NCI-60 five-dose assay; format: cell-based, human; settings: five-dose screen
Source text: (§2) We first evaluated the cytotoxic activity of tricyclic-pyrrole carboxamides 1–20 using the NCI-60 cell line panel, representing nine different human cancers: leukemia, melanoma, and cancers of the lung, colon, central nervous system (CNS), ovary, kidney, prostate, and breast (the one-dose graph for compounds 1–20 is reported in Supplementary Materials, Figures S43–S62). Compounds 1, 5, 10, 11, 17, and 20 satisfied pre-determined threshold inhibition criteria in a minimum number of cell lines; therefore, they were also tested in the full five-dose assay (Figures S63–S68 in the Supplementary Materials).
(§3) Due to these preliminary results, six compounds, 1, 5, 10, 11, 17, and 20, were selected for the five-dose screen NCI-programme against the same panel of tumour cell lines.

[5] = test system: HOP-92 (non-small cell lung cancer); experiment: NCI-60 five-dose assay; format: cell-based, human; settings: five-dose screen
Source text: as §2, §3

Molecule: O=C(NCCCN1CCN(Cc2ccccc2)CC1)c1c(Cl)[nH]c2c1CCCc1ccccc1-2 [Compound 20, N-(3-(4-Benzylpiperazin-1-yl)propyl)-2-chloro-1,4,5,6-tetrahydrobenzo[6,7]cyclohepta[1,2-b]pyrrole-3-carboxamide]
- inhibition at 10 µM [1]: 72.4%

Molecule: O=C(NCCN1CCN(c2ccc(Cl)cc2)CC1)c1c(Cl)[nH]c2c1CCCc1ccccc1-2 [Compound 13]
- IAV/MDCK CC50 (MDCK cells): 225.00 µM
- CC50 (in vitro): 62.2 µM

Molecule: CCN1CCC[C@H]1CNC(=O)c1[nH]c2c(c1Cl)CCCc1ccccc1-2 [Compound 1, (S)-3-Chloro-N-(1-ethyl-2-pyrrolidinylmethyl)-5,6-dihydro-4H-benzo[6,7]cyclohepta[1,2-b]pyrrol-2-carboxamide]
- GI50 (SF-295 (CNS cancer)): 1.89 µM
- GI50 [2]: 2.03 µM

Molecule: COc1ccccc1N1CCN(CCNC(=O)c2c(Cl)[nH]c3c2CCCc2ccccc2-3)CC1 [Compound 15]
- growth inhibition (GI%) [3]: 66.06%
- growth inhibition (GI%) [4]: 75.11%

Molecule: N-(3-(4-Benzylpiperazin-1-yl)propyl)-2-chloro-1,4,5,6-tetrahydrobenzo[6,7]cyclohepta[1,2-b]pyrrole-2-carboxamide [Compound 11]
- CC50 (Vero TMPRSS cells): 15.4 µM
- GI50 (MCF-7 (breast cancer)): 2.77 µM
- GI50 [5]: 2.72 µM
